Data taken from patent publication US20260284018A1, “DUAL INHIBITORS OF DYRK1A AND 5-HT2 FOR TREATING A BRAIN DISORDER” (THE REGENTS OF THE UNIVERSITY OF CALIFORNIA, priority 2023, published 2026).

Tests used:
[1] = target: T1, human recombinant 5-HT2CR (Homo sapiens, UniProt P28335); assay: IPOne HTRF assay, 5-HT2CR; type: cell-based; details: for antagonist activity at 5-HT2C, IP-One / selectivity of antagonism, 5-HT2C versus 5-HT2A, IP-One: antagonist mode
T1 construct: host or cells: CHO-K1
T1 sequence (P28335 33-458): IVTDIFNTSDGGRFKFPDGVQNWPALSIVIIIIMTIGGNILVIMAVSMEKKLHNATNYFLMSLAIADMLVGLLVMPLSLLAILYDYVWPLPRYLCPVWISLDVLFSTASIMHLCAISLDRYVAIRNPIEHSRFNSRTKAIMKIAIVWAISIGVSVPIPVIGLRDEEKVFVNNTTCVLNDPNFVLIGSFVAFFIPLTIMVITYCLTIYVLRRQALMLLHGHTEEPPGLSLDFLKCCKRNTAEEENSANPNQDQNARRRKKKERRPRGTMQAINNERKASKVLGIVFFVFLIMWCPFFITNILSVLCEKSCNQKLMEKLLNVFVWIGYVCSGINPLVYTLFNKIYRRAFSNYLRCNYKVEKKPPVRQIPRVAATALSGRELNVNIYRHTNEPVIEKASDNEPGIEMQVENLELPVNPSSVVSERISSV
Method: (§1) IPOne Assays. The 5-HT2AR and 5-HT2CR IPOne HTRF assays were performed at Epics Therapeutics S.A. (Belgium, FAST-0505I) using conventional methods. Briefly, CHO-K1 cells expressing human recombinant 5-HT2AR or 5-HT2CR grown to mid-log phase in culture media without antibiotics were detached with PBS-EDTA, centrifuged, and resuspended in medium without antibiotics buffer. Then, 20,000 cells were distributed in a 96-well plate and incubated overnight at 37° C. with 5% CO2. For agonist testing, the medium was removed and 20 μL of assay buffer plus 20 μL of test compound or reference agonist (α-Me-5-HT) was added to each well. The plate was incubated for 60 min at 37° C. with 5% CO2. For antagonist testing, the medium was removed and 20 μL of assay buffer plus 20 μL of test compound or reference antagonist (ketanserin) was added to each well. The plate was incubated for 60 min at 37° C. with 5% CO2. After addition of the lysis buffer containing IP1-d2 and anti-IP1 cryptate detection reagents, plates were incubated for 1 h at room temperature and fluorescence ratios were measured according to the manufacturer's specifications using the HTRF kit.

[2] = target: T2, human recombinant 5-HT2AR (Homo sapiens, UniProt P28223); assay: IPOne HTRF assay, 5-HT2AR; type: cell-based; details: for antagonist activity at 5-HT2A, IP-One: antagonist mode
T2 construct: host or cells: CHO-K1
T2 sequence (P28223 whole entry): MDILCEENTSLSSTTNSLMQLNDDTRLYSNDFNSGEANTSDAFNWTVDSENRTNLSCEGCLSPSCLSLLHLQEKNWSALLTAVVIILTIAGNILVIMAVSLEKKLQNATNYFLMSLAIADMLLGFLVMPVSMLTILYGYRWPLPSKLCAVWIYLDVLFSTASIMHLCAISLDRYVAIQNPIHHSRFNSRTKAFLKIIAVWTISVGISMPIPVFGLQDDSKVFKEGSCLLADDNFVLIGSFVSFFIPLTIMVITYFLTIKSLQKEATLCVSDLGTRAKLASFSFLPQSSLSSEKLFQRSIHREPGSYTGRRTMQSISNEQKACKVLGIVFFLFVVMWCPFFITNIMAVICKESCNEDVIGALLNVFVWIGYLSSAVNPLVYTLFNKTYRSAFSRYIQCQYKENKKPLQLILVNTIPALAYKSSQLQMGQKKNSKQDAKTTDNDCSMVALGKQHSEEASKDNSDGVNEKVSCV
Method: as §1

DYRK1A = target: T3, DYRK1A (Homo sapiens, UniProt Q13627); assay: DYRK1A inhibition (ADP-Glo assay); type: biochemical; details: FIG. 3
T3 construct: purchased Promega
Method: DYRK1A inhibition. IC50s for all compounds at DYRK1A were determined using an ADP-Glo™ assay kit (Promega) and DYRK1A enzyme system (Promega) following the manufacturer's protocol. In brief, 10 μL of DYRKtide substrate (1 mg/mL) and ATP (50 μM) in kinase reaction buffer (40 mM Tris HCl, 20 mM MgCl2, 0.1 mg/mL BSA, 50 μM DTT in DI water) was added to a solid white 96-well plate. Next, 5 μL of 5× compound solutions in kinase reaction buffer (5% DMSO) or 5% DMSO in kinase reaction buffer was added. Then 10 μL DYRK1A in kinase reaction buffer (2 ng/μL) was added and the plate was incubated at room temperature for 60 min before adding 25 μL ADP-Glo™ reagent. The plate was incubated for 40 min at room temperature. Subsequently, 50 μL of Kinase Detection Reagent was added, the plate was gently shaken for 1 min. and incubated away from light for 30-40 min. Finally, luminescence was measured using a BioTek Synergy HTX multi-mode reader (integration time=1 s). All data was normalized such that the luminescence produced by the lowest concentration treatment of each compound was set to 100% DYRK1A activity.

With COc1ccc2c3ccnc(C)c3n(CCN(C)C)c2c1.O=C(O)/C=C/C(=O)O [HTW_A_8 fumarate, 2-(7-methoxy-1-methyl-9H-pyrido[3,4-b]indol-9-yl)-N,N-dimethylethan-1-amine Fumarate Salt (2:3)] the “activation of 5-HT2C, IP-One agonist mode” value [1] was “no activation”, the “antagonist activity at 5-HT2C, IP-One” value [1] was “antagonist activity” and the “selectivity of antagonism, 5-HT2C versus 5-HT2A, IP-One” value [1] was “moderate selectivity for antagonism of 5-HT2C”. The “activation of 5-HT2A, IP-One agonist mode” value [2] was “no activation”, the “antagonist activity at 5-HT2A, IP-One” value [2] was “antagonist activity” and the “inhibition of DYRK1A activity” value (DYRK1A) was “able to inhibit DYRK1A activity”.

COc1ccc2c(c1)N(CCN(C)C)/C(=C/C(C)=O)S2.O=C(O)/C=C/C(=O)O [HTW_B_14 fumarate, (Z)-1-(3-(2-(dimethylamino)ethyl)-5-methoxybenzo[d]thiazol-2(3H)-ylidene)propan-2-one Fumarate Salt (1:1)] was tested, and the “activation of 5-HT2C, IP-One agonist mode” value [1] was “no activation”, the “antagonist activity at 5-HT2C, IP-One” value [1] was “antagonist activity” and the “selectivity of antagonism, 5-HT2C versus 5-HT2A, IP-One” value [1] was “moderate selectivity for antagonism of 5-HT2C”. The “activation of 5-HT2A, IP-One agonist mode” value [2] was “no activation”, the “antagonist activity at 5-HT2A, IP-One” value [2] was “antagonist activity” and the “inhibition of DYRK1A activity” value (DYRK1A) was “able to inhibit DYRK1A activity”.
